The target of this assay is T1, EcRB2/USP (Drosophila melanogaster, UniProt P34021).
T1 construct: The plasmid encodes a version of EcRB2 that includes 669 amino acids, and deletes the F domain; expressed in transfected cells; host or cells: CHO
T1 sequence (P34021 1-669 isoform P34021-3): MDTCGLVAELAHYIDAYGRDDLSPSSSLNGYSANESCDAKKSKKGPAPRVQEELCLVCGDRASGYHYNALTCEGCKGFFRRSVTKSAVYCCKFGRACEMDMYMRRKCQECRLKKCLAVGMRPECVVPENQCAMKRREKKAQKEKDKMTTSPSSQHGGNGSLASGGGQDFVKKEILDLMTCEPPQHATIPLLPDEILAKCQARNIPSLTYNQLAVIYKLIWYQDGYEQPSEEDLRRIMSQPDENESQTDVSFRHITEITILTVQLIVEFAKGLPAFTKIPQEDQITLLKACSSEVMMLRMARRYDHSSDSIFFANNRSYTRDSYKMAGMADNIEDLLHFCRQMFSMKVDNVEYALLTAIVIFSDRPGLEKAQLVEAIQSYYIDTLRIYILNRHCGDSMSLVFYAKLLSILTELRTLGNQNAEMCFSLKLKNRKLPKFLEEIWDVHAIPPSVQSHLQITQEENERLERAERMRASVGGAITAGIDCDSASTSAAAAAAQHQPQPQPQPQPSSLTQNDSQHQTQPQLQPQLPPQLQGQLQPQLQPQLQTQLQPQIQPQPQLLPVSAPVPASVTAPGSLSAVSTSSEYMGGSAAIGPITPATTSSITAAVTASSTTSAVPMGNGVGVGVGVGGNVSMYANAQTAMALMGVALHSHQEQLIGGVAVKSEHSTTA
T1 sequence (O76202 192-472 partner): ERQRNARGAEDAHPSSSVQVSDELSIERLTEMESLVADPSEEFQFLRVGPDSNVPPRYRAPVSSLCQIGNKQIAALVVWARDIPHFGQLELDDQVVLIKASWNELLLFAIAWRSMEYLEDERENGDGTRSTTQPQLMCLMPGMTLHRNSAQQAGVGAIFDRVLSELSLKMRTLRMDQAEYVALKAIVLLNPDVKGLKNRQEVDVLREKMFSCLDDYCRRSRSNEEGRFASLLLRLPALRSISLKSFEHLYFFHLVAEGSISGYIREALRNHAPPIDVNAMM
Nature of the assay: EcRB2 isoform with USP (VP16CfUSP), (EcRE)5-ΔMTV-LUC in CHO cells. The format is cell-based. On the procedure:
These experiments employed a mammalian cell culture system using Chinese hamster ovary cells (CHO) to evaluate the transcriptional function of Drosophila melanogaster EcR and USP using methods described previously (U.S. Patent Application Publication No: 2005/0049230; Henrich et al, 2003). Cells were seeded in 6-well polypropylene culture plates (Falcon) with 10^5 cells per well on the day prior to transfection. Transfection was subsequently performed using either calcium phosphate (Kitareewan et al., 1996, Mol. Biol. Cell, 7:1153-1196) or a GenePorter reagent (Gene Therapy Systems, Inc; San Diego, Calif.) following manufacturer's protocols. Each well received 1.25 μg of (EcRE)5-ΔMTV-CAT (five copies of the hsp27 EcRE inserted into an mouse mammary tumor virus (MTV) promoter upstream of the chloramphenicol acetyltransferase (CAT) gene) or (EcRE)5-ΔMTV-LUC (the same promoter attached to firefly luciferase), 1.25 μg of pCH111 (SV40 early promoter linked to the β-galactosidase gene) to normalize CAT activity, and 0.25 μg of each expression plasmid (EcR, FXR, RXR, USP) that was tested. The cells were incubated with plasmid DNA for seven hours and then washed with 1×PBS. Muristerone A (murA; Alexis Biochemicals) or 20-hydroxyecdysone (20E; Sigma) dissolved in ethanol to a concentration of 10 mM was diluted as necessary to the final assay concentration (FAC) in 2 ml of fresh incubation medium that was then applied to the cells. Similarly, JHIII (Sigma) was dissolved in dimethyl sulfoxide (DMSO) to a concentration of […] and diluted into the incubation medium to its final assay concentration (20, 40, 80, 160 μM). […] A corresponding volume of ethanol and DMSO were added to control cells for all experiments. For all experiments, the cells were allowed to incubate with the medium for 24 hours before collection and cell lysates were prepared by described methods (Kitareewan et al., 1996). Both β-galactosidase and CAT reporter activity were measured based on previously used methods (Kitareewan et al, 1996). Luciferase assays using luciferrin followed the specifications of the manufacturer.
Transcriptional activity, measured as ^14C-chloramphenicol counts (for measuring CAT activity) or relative luciferase activity (RLU) was quantified for each cell lysate. The counts were then normalized by adjusting for differences in β-galactosidase activity, since β-galactosidase expression is controlled by a constitutive promoter and provides an estimate of cell mass. Data were normalized as fold-induction based on differences in reporter gene activity between hormonally treated and control cells.

As for `CC(C)(O)CC[C@@H](O)[C@](C)(O)[C@H]1CC[C@@]2(O)C3=CC(=O)[C@@H]4C[C@@H](O)[C@@H](O)C[C@]4(C)[C@H]3CC[C@]12C` [20E, 20-hydroxyecdysone], the “transcriptional response to 20E” value (EcRB2 + VP16CfUSP, 10 μM 20E) is “consistent and discernible transcriptional response”. In addition, where the note is “EcRB2/USP, 10 μM 20E”, the “20E (inducibility)” value is on record as “+ ((+) designates a change in transcriptional level that exceeds 2.5-fold)”.

Consider `COC(=O)/C=C(\C)CC/C=C(\C)CC[C@H]1OC1(C)C` [JHIII, juvenile hormone III], for which the “potentiation of 20E response by JHIII” value (EcRB2 + VP16CfUSP, 10 μM 20E plus JHIII) is “potentiated significantly”. The “potentiation of murA response by JHIII” value (EcRB2 + VP16CfUSP, 80 μM JHIII with 0.1 μM murA) is listed as “potentiated”. Moreover, the “MurA + JHIII (JHIII potentiation)” value (EcRB2/USP, 0.1 μM murA + 80 μM JHIII) was “+ ((+) indicates observed potentiation that exceeds 2-fold above the levels observed with ecdysteroid alone)”. For the same compound, the “20E + JHIII (JHIII potentiation)” value (EcRB2/USP, 10 μM 20E + 80 μM JHIII) is given as “+ ((+) indicates observed potentiation that exceeds 2-fold above the levels observed with ecdysteroid alone)”.

On to `CC(C)CC[C@@H](O)[C@](C)(O)[C@H]1CC[C@@]2(O)C3=CC(=O)[C@]4(O)C[C@@H](O)[C@@H](O)C[C@]4(C)[C@H]3[C@H](O)C[C@]12C` [murA, muristerone A], for which, where the note is “EcRB2 + VP16CfUSP, 1 μM murA”, the “induction by murA” value is on record as 30-40 fold. Besides, the “MurA (inducibility)” value (EcRB2/USP, 0.1 μM murA) was “+ ((+) designates a change in transcriptional level that exceeds 2.5-fold)”.

Source of the values: patent publication US8637237B2, “Methods, compositions, and systems for the identification of species-specific or developmental stage-specific insecticides” (The University of North Carolina at Greensboro, priority 2003, dated 2014).
